For data set [1], the system named is human promyelocytic leukemia (HL-60). As to the kind of experiment: Growth inhibition of human cell line HL-60.
Data set [2] can be described thus: Solubility in buffers of various pH. Format: physicochemical. The conditions noted are these: buffer, pH 6.5, aqueous buffer; read-out: Experimental Solubility pH 6.5.
The subject of data set [3] is human lymphocyte (CRL8155). In words: Growth inhibition of human cell line CRL8155.
For another data set, the target named is PfCDPK1 (Plasmodium falciparum (isolate 3D7), UniProt P62344). In words: biochemical.
In the next data set the target is PfCDPK4 (Plasmodium falciparum (isolate 3D7), UniProt Q8IBS5). In words: biochemical.

In brackets after ≈: the same amount, converted by molar mass.

Take `Cn1ccc2cc(-c3nc(C(C)(C)C)n4ccnc(N)c34)ccc21` [Compound 70, 3-tert-butyl-1-(1-methyl-1H-indol-5-yl)imidazo[1,5-a]pyrazin-8-amine]: the “Cell Toxicity HL60, % at 10 μM” value in data set [1] stood at 40% at 10 μM. For the same molecule, the solubility in data set [2] turned out to be 5 µM (≈ 1.6 µg/mL). In addition, the “Cell Toxicity CRL8155, % at 10 μM” value in data set [3] is recorded as less than 30% at 10 μM. Also, the EC50 at PfCDPK1 turned out to be 53.8 nM; on PfCDPK4, 83.4 nM.

As for `COc1ccc2cc(-c3nc(C(C)(C)C)n4ccnc(N)c34)ccc2c1` [Compound 71, 3-tert-butyl-1-(6-methoxynaphthalen-2-yl)imidazo[1,5-a]pyrazin-8-amine], the “Cell Toxicity HL60, % at 10 μM” value in data set [1] was less than 30% at 10 μM. In data set [2], the solubility was found to be 9 µM (≈ 3.12 µg/mL). In addition, the “Cell Toxicity CRL8155, % at 10 μM” value in data set [3] is given as less than 30% at 10 μM. In addition, the concentration for a half-maximal effect (EC50) at PfCDPK1 was 67.6 nM; at PfCDPK4 it was 65.2 nM.

As for `Cc1cccc2[nH]c(-c3nc(C(C)(C)C)n4ccnc(N)c34)cc12` [Compound 83], in data set [1], the “Cell Toxicity HL60, % at 10 μM” value is recorded as 37% at 10 μM and the “Cell Toxicity HL60, % at 30 μM” value is reported as 38% at 30 μM. Further, in data set [2], the solubility stood at 36 µM (≈ 11.5 µg/mL). In data set [3], the “Cell Toxicity CRL8155, % at 10 μM” value was less than 30% at 10 μM and the “Cell Toxicity CRL8155, % at 30 μM” value is given as 46% at 30 μM. Also, a half-maximal effect at PfCDPK1 (EC50) was put at 1080 nM. Further, the half-maximal effective concentration (EC50) on PfCDPK4 came out at 371 nM.

As to `CC(C)(C)c1nc(-c2ccc3ccccc3c2)c2c(N)nccn12` [Compound 84], in data set [1], the “Cell Toxicity HL60, % at 10 μM” value is on record as less than 30% at 10 μM and the “Cell Toxicity HL60, % at 30 μM” value worked out at 50% at 30 μM. For the same molecule, in data set [2], the solubility was 26 µM (≈ 8.23 µg/mL). Moreover, in data set [3], the “Cell Toxicity CRL8155, % at 10 μM” value is less than 30% at 10 μM and the “Cell Toxicity CRL8155, % at 30 μM” value is given as 48% at 30 μM. The molecule also registered a half-maximal effective concentration (EC50) on PfCDPK1 of 61.3 nM. Besides, at PfCDPK4, a half-maximal effect (EC50) was put at 55.1 nM.

On to `Nc1ncnc2c1c(-c1ccc3cc(O)ccc3c1)nn2CC1CCNCC1` [Compound 119], for which, in data set [1], the “Cell Toxicity HL60, % at 10 μM” value was <30% at 10 μM; and the “Cell Toxicity HL60, % at 30 μM” value was less than 30% at 30 μM. Also, the solubility in data set [2] came out at 50 µM (≈ 18.7 µg/mL). Also, in data set [3], the “Cell Toxicity CRL8155, % at 10 μM” value is reported as less than 30% at 10 μM and the “Cell Toxicity CRL8155, % at 30 μM” value is recorded as less than 30% at 30 μM. The same molecule yielded an EC50 at PfCDPK1 of 76.9 nM. Besides, it took 7.3 nM to reach a half-maximal effect on PfCDPK4 (EC50).

In the case of `COc1ccc(-c2nn(C(C)(C)C)c3ncnc(N)c23)cc1C` [Compound 132], in data set [2], the solubility turned out to be 3.8 µM (≈ 1.18 µg/mL). In addition, the EC50 was more than 3000 nM at PfCDPK1 and 1490 nM at PfCDPK4.

Regarding `COc1ccc2cc(-c3nn(C(C)(C)C)c4ncnc(N)c34)ccc2c1` [Compound 135], in data set [2], the solubility is 3 µM (≈ 1.04 µg/mL). Moreover, the EC50 at PfCDPK1 was 668 nM; on PfCDPK4, 137 nM.

Turning to `CCOc1ccc2cc(-c3nn(C(C)(C)C)c4ncnc(N)c34)ccc2c1` [Compound 137], the solubility in data set [2] stood at 1 µM (≈ 0.361 µg/mL). Moreover, the concentration for a half-maximal effect (EC50) on PfCDPK1 is 2430 nM; on PfCDPK4, 942 nM.

With `Cn1ccc2cc(-c3nn(C(C)(C)C)c4ncnc(N)c34)ccc21` [Compound 139], the solubility in data set [2] came to 0.69 µM (≈ 0.221 µg/mL). Further, the 50% effective concentration (EC50) on PfCDPK1 turned out to be 1150 nM; at PfCDPK4, 566 nM.

For `Cn1ncc2cc(-c3nn(C(C)(C)C)c4ncnc(N)c34)ccc21` [Compound 142], the solubility in data set [2] is 5.2 µM (≈ 1.67 µg/mL). Besides, the results for the EC50 on PfCDPK1 and on PfCDPK4 were 294 nM and 94.7 nM, respectively.

With `CCOc1ccc2cc(-c3nn(C4CCN(C)CC4)c4ncnc(N)c34)ccc2c1` [Compound 148], in data set [1], the “Cell Toxicity HL60, % at 10 μM” value is less than 30% at 10 μM and the “Cell Toxicity HL60, % at 30 μM” value is 49% at 30 μM;. Besides, the solubility in data set [2] was 56 µM (≈ 22.5 µg/mL). The “Cell Toxicity CRL8155, % at 30 μM” value in data set [3] was less than 30% at 30 μM. The response on PfCDPK4 was half-maximal at 39 nM (EC50).

In the case of `CCOc1ccc2cc(-c3nn(C4CCN(CC)CC4)c4ncnc(N)c34)ccc2c1` [Compound 149], in data set [1], the “Cell Toxicity HL60, % at 30 μM” value was less than 30% at 30 μM. For the same molecule, in data set [2], the solubility amounted to 75 µM (≈ 31.2 µg/mL). Further, in data set [3], the “Cell Toxicity CRL8155, % at 10 μM” value is less than 30% at 10 μM and the “Cell Toxicity CRL8155, % at 30 μM” value is reported as less than 30% at 30 μM. In addition, at PfCDPK4, the EC50 amounted to 81.6 nM.

What is called solubility is the concentration that dissolves in the medium under given conditions. As usually defined, the EC50 is the concentration that produces a half-maximal response.
